Test results reported in patent US6358885B1, “Substituted phenylheterocyclic herbicides” (Mississippi State University, priority 1992, dated 2002).

What was measured:
cheatgrass = assay: Test B preemergence/postemergence greenhouse plant response rating 0 to 10; assay type: in vivo, Bromus secalinus; settings: 0 to 10 scale
In short: (§1)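 Planted seeds are treated preemergence with compound dissolved in a non-phytotoxic solvent, while postemergence applications go onto plants of two to eighteen cm. Plants stay in the greenhouse twelve to sixteen days and are then rated visually relative to controls.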

chickweed [1] = assay: as above; assay type: in vivo, Stellaria media; settings: 0 to 10 scale
In short: as §1

corn = assay: as above; assay type: in vivo, Zea mays; settings: 0 to 10 scale
In short: as §1

giant foxtail = assay: as above; assay type: in vivo, Setaria faberii; settings: 0 to 10 scale
In short: as §1

sorghum = assay: as above; assay type: in vivo, Sorghum bicolor; settings: 0 to 10 scale
In short: as §1

wild buckwheat [2] = assay: as above; assay type: in vivo, Polygonum convolvulus; settings: 0 to 10 scale
In short: as §1

wild oat = assay: as above; assay type: in vivo, Avena fatua; settings: 0 to 10 scale
In short: as §1

barley = assay: Test C preemergence/postemergence greenhouse plant response rating 0 to 100; assay type: in vivo, Hordeum vulgare; settings: POSTEMERGENCE; for Plant response rating Barley Igri: 0 to 100 scale
In short: (§2)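 Compounds in non-phytotoxic solvent went onto sandy loam before emergence (seeded one day earlier) or onto plants at the one-to-four leaf stage. Duck salad was treated via flood water (~2.5 cm, maintained) over silt loam.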

chickweed [3] = assay: as above; assay type: in vivo, Stellaria media; settings: POSTEMERGENCE; for Plant response rating, Chickweed: 0 to 100 scale
In short: as §2

cotton = assay: as above; assay type: in vivo, Gossypium hirsutum; settings: POSTEMERGENCE; for Plant response rating, Cotton: 0 to 100 scale
In short: as §2

downy brome = assay: as above; assay type: in vivo, Bromus tectorum; settings: POSTEMERGENCE; for Plant response rating Downy Brome: 0 to 100 scale
In short: as §2

lambsquarters = assay: as above; assay type: in vivo, Chenopodium album; settings: POSTEMERGENCE; for Plant response rating Lambsquarters: 0 to 100 scale
In short: as §2

ryegrass = assay: as above; assay type: in vivo, Lolium multiflorum; settings: POSTEMERGENCE; for Plant response rating Ryegrass: 0 to 100 scale
In short: as §2

soybean = assay: as above; assay type: in vivo, Glycine max; settings: POSTEMERGENCE; for Plant response rating, Soybean: 0 to 100 scale
In short: as §2

sugar beet = assay: as above; assay type: in vivo, Beta vulgaris; settings: POSTEMERGENCE; for Plant response rating, Sugar beet: 0 to 100 scale
In short: as §2

velvetleaf = assay: as above; assay type: in vivo, Abutilon theophrasti; settings: POSTEMERGENCE; for Plant response rating, Velvetleaf: 0 to 100 scale
In short: as §2

wild buckwheat [4] = assay: as above; assay type: in vivo, Polygonum convolvulus; settings: POSTEMERGENCE; for Plant response rating, Wild buckwheat: 0 to 100 scale
In short: as §2

duck salad = assay: Test C flood test plant response rating 0 to 100; assay type: in vivo, Heteranthera limosa; settings: for Plant response rating Duck salad: flood test species listed under POSTEMERGENCE, 0 to 100 scale
In short: as §2

## Fc1cc(Cl)c(OCCCl)cc1-c1nn2c(c1Cl)CCCC2 [Compound 49]
cheatgrass; POSTEMERGENCE, Rate 50 g/ha
  Plant response rating, Cheatgrass: 4
cheatgrass; POSTEMERGENCE, Rate 200 g/ha
  Plant response rating, Cheatgrass: 7
cheatgrass; PREEMERGENCE, Rate 50 g/ha
  Plant response rating, Cheatgrass: 0
cheatgrass; Rate 200 g/ha, PREEMERGENCE
  Plant response rating, Cheatgrass: 2
Chickweed [1]; POSTEMERGENCE, Rate 50 g/ha
  Plant response rating, Chickweed: 7
Chickweed [1]; POSTEMERGENCE, Rate 200 g/ha
  Plant response rating, Chickweed: 9
Chickweed [1]; PREEMERGENCE, Rate 50 g/ha
  Plant response rating, Chickweed: 0
Chickweed [1]; Rate 200 g/ha, PREEMERGENCE
  Plant response rating, Chickweed: 8
corn; POSTEMERGENCE, Rate 50 g/ha
  Plant response rating, Corn: 3
corn; POSTEMERGENCE, Rate 200 g/ha
  Plant response rating, Corn: 4
corn; PREEMERGENCE, Rate 50 g/ha
  Plant response rating, Corn: 0
corn; Rate 200 g/ha, PREEMERGENCE
  Plant response rating, Corn: 2
Giant foxtail; POSTEMERGENCE, Rate 50 g/ha
  Plant response rating, Giant foxtail: 4
Giant foxtail; PREEMERGENCE, Rate 50 g/ha
  Plant response rating, Giant foxtail: 4
Giant foxtail; Rate 200 g/ha, POSTEMERGENCE
  Plant response rating, Giant foxtail: 6
Giant foxtail; Rate 200 g/ha, PREEMERGENCE
  Plant response rating, Giant foxtail: 10
sorghum; POSTEMERGENCE, Rate 50 g/ha
  Plant response rating, Sorghum: 3
sorghum; PREEMERGENCE, Rate 50 g/ha
  Plant response rating, Sorghum: 0
sorghum; Rate 200 g/ha, POSTEMERGENCE
  Plant response rating, Sorghum: 5
sorghum; Rate 200 g/ha, PREEMERGENCE
  Plant response rating, Sorghum: 1
Wild buckwheat [2]; POSTEMERGENCE, Rate 50 g/ha
  Plant response rating, Wild buckwheat: 10
Wild buckwheat [2]; PREEMERGENCE, Rate 50 g/ha
  Plant response rating, Wild buckwheat: 7
Wild buckwheat [2]; Rate 200 g/ha, POSTEMERGENCE
  Plant response rating, Wild buckwheat: 10
Wild buckwheat [2]; Rate 200 g/ha, PREEMERGENCE
  Plant response rating, Wild buckwheat: 10
Wild oat; POSTEMERGENCE, Rate 50 g/ha
  Plant response rating, Wild oat: 3
Wild oat; PREEMERGENCE, Rate 50 g/ha
  Plant response rating, Wild oat: 0
Wild oat; Rate 200 g/ha, POSTEMERGENCE
  Plant response rating, Wild oat: 4
barley; 62 g/ha
  Plant response rating Barley Igri: 40
barley; 250 g/ha
  Plant response rating Barley Igri: 60
barley; Rate 4 g/ha
  Plant response rating (0 to 100), Barley Igri: 10
barley; Rate 16 g/ha
  Plant response rating (0 to 100), Barley Igri: 20
Chickweed [3]; 62 g/ha
  Plant response rating, Chickweed: 50
Chickweed [3]; 250 g/ha
  Plant response rating, Chickweed: 80
Chickweed [3]; Rate 4 g/ha
  Plant response rating (0 to 100), Chickweed: 20
Chickweed [3]; Rate 16 g/ha
  Plant response rating (0 to 100), Chickweed: 50
cotton; 62 g/ha
  Plant response rating, Cotton: 100
cotton; 250 g/ha
  Plant response rating, Cotton: 100
cotton; Rate 4 g/ha
  Plant response rating (0 to 100), Cotton: 90
cotton; Rate 16 g/ha
  Plant response rating (0 to 100), Cotton: 90
Downy brome; 62 g/ha
  Plant response rating Downy Brome: 60
Downy brome; 250 g/ha
  Plant response rating Downy Brome: 70
Downy brome; Rate 4 g/ha
  Plant response rating (0 to 100), Downy Brome: 30
Downy brome; Rate 16 g/ha
  Plant response rating (0 to 100), Downy Brome: 40
lambsquarters; 62 g/ha
  Plant response rating Lambsquarters: 100
lambsquarters; 250 g/ha
  Plant response rating Lambsquarters: 100
lambsquarters; Rate 4 g/ha
  Plant response rating (0 to 100), Lambsquarters: 100
lambsquarters; Rate 16 g/ha
  Plant response rating (0 to 100), Lambsquarters: 100
ryegrass; 62 g/ha
  Plant response rating Ryegrass: 50
ryegrass; 250 g/ha
  Plant response rating Ryegrass: 60
ryegrass; Rate 4 g/ha
  Plant response rating (0 to 100), Ryegrass: 20
ryegrass; Rate 16 g/ha
  Plant response rating (0 to 100), Ryegrass: 40
soybean; 62 g/ha
  Plant response rating, Soybean: 70
soybean; 250 g/ha
  Plant response rating, Soybean: 80
soybean; Rate 4 g/ha
  Plant response rating (0 to 100), Soybean: 40
soybean; Rate 16 g/ha
  Plant response rating (0 to 100), Soybean: 50
Sugar beet; 62 g/ha
  Plant response rating, Sugar beet: 100
Sugar beet; 250 g/ha
  Plant response rating, Sugar beet: 100
Sugar beet; Rate 4 g/ha
  Plant response rating (0 to 100), Sugar beet: 100
Sugar beet; Rate 16 g/ha
  Plant response rating (0 to 100), Sugar beet: 100
velvetleaf; 62 g/ha
  Plant response rating, Velvetleaf: 100
velvetleaf; 250 g/ha
  Plant response rating, Velvetleaf: 100
velvetleaf; Rate 4 g/ha
  Plant response rating (0 to 100), Velvetleaf: 50
velvetleaf; Rate 16 g/ha
  Plant response rating (0 to 100), Velvetleaf: 90
Wild buckwheat [4]; 62 g/ha
  Plant response rating, Wild buckwheat: 100
Wild buckwheat [4]; 250 g/ha
  Plant response rating, Wild buckwheat: 100
Wild buckwheat [4]; Rate 4 g/ha
  Plant response rating (0 to 100), Wild buckwheat: 100
Wild buckwheat [4]; Rate 16 g/ha
  Plant response rating (0 to 100), Wild buckwheat: 100
Duck salad; POSTEMERGENCE section, flood test, Rate 4 g/ha
  Plant response rating (0 to 100), Duck salad: 20
Duck salad; Rate 16 g/ha, under POSTEMERGENCE head (flood test species)
  Plant response rating (0 to 100), Duck salad: 70
Duck salad; 62 g/ha
  Plant response rating Duck salad: 90
Duck salad; 250 g/ha
  Plant response rating Duck salad: 95
